Key:
[1] = molecular target: T1, Neutrophil elastase (Homo sapiens) (UniProt P08246); assay: Compound was tested for inhibition of Human Leukocyte Elastase enzyme, expressed in term of bimolecular rate constant (Kinact/Ki)
T1 sequence (whole entry): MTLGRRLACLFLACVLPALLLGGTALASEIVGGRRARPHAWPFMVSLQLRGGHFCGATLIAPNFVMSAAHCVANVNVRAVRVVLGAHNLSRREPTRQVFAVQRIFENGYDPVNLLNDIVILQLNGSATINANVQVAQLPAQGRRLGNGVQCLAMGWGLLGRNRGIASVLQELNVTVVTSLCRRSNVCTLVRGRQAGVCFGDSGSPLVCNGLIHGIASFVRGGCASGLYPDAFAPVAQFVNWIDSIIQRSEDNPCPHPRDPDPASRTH

[2] = molecular target: T1, Neutrophil elastase (Homo sapiens); assay: (§1) In vitro inhibition of Human Leukocyte Elastase enzyme in whole blood stimulated with A-23187 (at dose 3 uM); assay type: functional, tissue-based
[3] = test system: Cricetinae gen. sp.; assay: In vivo inhibition in HLE-induced hamster lung hemorrhage when given orally at 10 mg/kg, 2 hr before challenge by HLE; assay type: functional; settings: route oral
[4] = test system: Cricetinae gen. sp.; assay: Effective dose required to in vivo inhibition in HLE-induced hamster lung hemorrhage when given orally 5 hr before the enzyme; assay type: functional; settings: po
[5] = molecular target: T2, Neutrophil elastase (Homo sapiens, UniProt P08246); assay: as §1; assay type: functional, tissue-based
T2 sequence (P08246 whole entry): T1 sequence (whole entry)

| Ratio [1] | inhibition [2] | IC50 [5] | SMILES | inhibition in vivo at 10 mg/kg [3] | ED50 [4] |
| --- | --- | --- | --- | --- | --- |
| 1.05e+06 M⁻¹ s⁻¹ | – | – | CCC[C@@H](NC(=O)N1C(=O)C(CC)(CC)[C@@H]1Oc1ccc(CP(=O)(CCC)OC(OC(=O)CC)C(C)C)cc1)c1ccc(C)cc1 (stereo not given in full) | – | – |
| 906000 M⁻¹ s⁻¹ | 50% | – | CCC[C@@H](NC(=O)N1C(=O)C(CC)(CC)[C@@H]1Oc1ccc(CP(=O)(O)CCC)cc1)c1ccc(C)cc1 | 15% | – |
| 1.17e+06 M⁻¹ s⁻¹ | 34% | – | CCC[C@@H](NC(=O)N1C(=O)C(CC)(CC)[C@@H]1Oc1ccc(CP(=O)(O)c2ccccc2)cc1)c1ccc(C)cc1 | 27% | – |
| 1.33e+06 M⁻¹ s⁻¹ | 51% | – | C=CCP(=O)(Cc1ccc(O[C@@H]2N(C(=O)N[C@H](CCC)c3ccc(C)cc3)C(=O)C2(CC)CC)cc1)OCC (stereo not given in full) | 64% | – |
| 740000 M⁻¹ s⁻¹ | 48% | – | C=CCP(=O)(O)Cc1ccc(O[C@@H]2N(C(=O)N[C@H](CCC)c3ccc(C)cc3)C(=O)C2(CC)CC)cc1 | 19% | – |
| 417000 M⁻¹ s⁻¹ | 55% | – | CCC[C@@H](NC(=O)N1C(=O)C(CC)(CC)[C@@H]1Oc1ccc(CP(C)(=O)O)cc1)c1ccc(C)cc1 | -59% | – |
| 622000 M⁻¹ s⁻¹ | – | 9 µM | CCC[C@@H](NC(=O)N1C(=O)C(CC)(CC)[C@@H]1Oc1ccc(CC(=O)O)cc1)c1ccc(C)cc1 | – | 1.5 mg/kg |

| SMILES | Ratio [1] | inhibition [2] | IC50 [5] | inhibition in vivo at 10 mg/kg [3] | ED50 [4] |
| --- | --- | --- | --- | --- | --- |
| CCC[C@@H](NC(=O)N1C(=O)C(CC)(CC)[C@@H]1Oc1ccc(CP(=O)(OCC)OCC)cc1)c1ccc(C)cc1 | 1.16e+06 M⁻¹ s⁻¹ | 63% | – | 15% | – |
| CCC[C@@H](NC(=O)N1C(=O)C(CC)(CC)[C@@H]1Oc1ccc(CP(=O)(O)O)cc1)c1ccc(C)cc1 | 217000 M⁻¹ s⁻¹ | 61% | – | 17% | – |

From ChEMBL document CHEMBL1128120, “Phosphorous acid analogs of L-680,833, a potent monocyclic -lactam inhibitor of human leukocyte elastase” (Bioorg Med Chem Lett, 1995)
